Values of other authors in patent US11576377B2, “Antimicrobial mixtures of an essential oil derived bactericide and an essential oil derived fungicide which extend the shelf-life of perishable agricultural commodities” (priority 2013, dated 2023).

What was measured:
peaches = conditions: Mari et al. 2008
cherry stem = conditions: Tsao and Zhou, 2000

## C=CCN=C=S [allyl isothiocyanate]
peaches
  Phytotoxic effect on peaches: causes discoloration of peaches

## Cc1ccc(C(C)C)c(O)c1 [thymol]
Cherry stem
  Phytotoxic effect on cherry stem: causes browning of cherry stem
